This passage reports EC50 results from patent US6949556B2, “Acylated 1,2,3,4-tetrahydronaphthyl amines and their use as pharmaceutical agents” (Aventis Pharma Deutschland GmbH, priority 2001, dated 2005).

In general, EC50 refers to the concentration giving half of the maximal effect.

The assay has as its target eNOS promoter. In words: Activation of eNOS transcription (eNOS promoter firefly luciferase reporter). The class given is cell-based. The note with it: EC50 of transcription induction ratio (TIR) vs compound concentration, determined graphically; stably transfected human endothelial cell line, 18 h incubation. How it is done:
Activation of eNOS transcription was measured as described in detail in Li et al. “Activation of protein kinase C alpha and/or epsilon enhances transcription of the human endothelial nitric oxide synthase gene”, Mol. Pharmacol. 1998; 53: 630-637. Briefly, a 3.5 kB long fragment 5′ of the starting codon of the eNOS gene was cloned, sequenced and cloned in firefly luciferase expression plasmids to monitor activation of the eNOS promoter by reporter gene activity. A human endothelial cell line stable transfected and expressing this promoter-reporter construct was used for compound testing. Cells were incubated for 18 h with compounds.
All compounds were dissolved in sterile DMSO. A final concentration of 0.5% DMSO in complete medium was allowed. Induction of reporter gene expression in these cells was measured using a standard luciferase assay system (Promega, Cat. No E150) according to the manufacturer's instructions. Luciferase induction in cells incubated with compounds were compared to those incubated with solvent alone. The ratio of both activities (transcription induction ratio, TIR) was plotted as a function of compound concentration. Typically, TIR values started at low concentrations at a ratio of 1, indicating no compound effect, and extended up to a maximum TIR value TIR(max) which indicates the increase of the eNOS transcription. EC50 values of transcription induction ratios as a function of compound concentration were determined graphically.
Background: In a reporter assay the amount or activity of a reporter protein is the signal.

Regarding `N#Cc1ccc(C(=O)N[C@H]2CCc3ccccc3C2)cn1` [Compound 57, 6-Cyano-N-(S)-1,2,3,4-tetrahydro-naphthalen-2-yl-nicotinamide], the EC50 was determined as 0.5 µM.

On to `COc1ccc(-n2ncc(C(=O)N[C@@H]3CCc4ccccc4C3)c2C)cc1` [Compound 60, 1-(4-Methoxy-phenyl)-5-methyl-1H-pyrazole-4-carboxylic acid N-(R)-(1,2,3,4-tetrahydro-naphthalen-2-yl)-amide], for which the EC50 worked out at 4.12 µM.

Take `O=C(N[C@@H]1CCc2ccccc2C1)c1cncc(-c2cccs2)c1` [Compound 62, N-(R)-1,2,3,4-Tetrahydro-naphthalen-2-yl-5-thiophen-2-yl-nicotinamide]: the half-maximal effective concentration (EC50) came to 4.47 µM.

`O=C(N[C@H]1CCc2ccccc2C1)c1cncc(-c2cccs2)c1` [Compound 63, N-(S)-1,2,3,4-Tetrahydro-naphthalen-2-yl-5-thiophen-2-yl-nicotinamide]: the EC50 stood at 0.3 µM.

`O=C(N[C@@H]1CCc2ccccc2C1)c1onc2ccccc12` [Compound 64, Benzo[c]isoxazole-3-carboxylic acid N-(R)-(1,2,3,4-tetrahydro-naphthalen-2-yl)-amide]: the EC50 was found to be 15.2 µM.

Turning to `CCCc1c(C(=O)N[C@@H]2CCc3ccccc3C2)cnn1-c1cc(Cl)cc(Cl)c1` [Compound 66, 1-(3,5-Dichloro-phenyl)-5-propyl-1H-pyrazole-4-carboxylic acid N-(R)-(1,2,3,4-tetrahydro-naphthalen-2-yl)-amide], the EC50 was 5.86 µM.

Turning to `CCCc1c(C(=O)N[C@H]2CCc3ccccc3C2)cnn1-c1cc(Cl)cc(Cl)c1` [Compound 67, 1-(3,5-Dichloro-phenyl)-5-propyl-1H-pyrazole-4-carboxylic acid N-(S)-(1,2,3,4-tetrahydro-naphthalen-2-yl)-amide], the EC50 was found to be 23.5 µM.

In the case of `O=C(N[C@H]1CCc2ccccc2C1)c1ccncc1` [Compound 69, (S)-N-(1,2,3,4-Tetrahydro-naphthalen-2-yl)-isonicotinamide], the EC50 was 0.19 µM.
